The supplement of paper PMC4862054

Experiments:
Conditions in all cases: incubation time: 72 h
CAL-85-1 [1] = assay: drug sensitivity score (DSS), CellTiter-Blue viability (DSS (AUC-based score)); higher = stronger viability inhibition; extreme values may be limits of the assay
Procedure: (§1)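 DSRT with the CellTiter-Blue (resazurin reduction) viability readout, fluorescence 560/590 nm, 72 h incubation. Plates were normalised to DMSO and benzethonium chloride controls. DSS is computed from the area under the fitted dose-response curve (5 or 9 concentrations).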

Hs578T [2] = assay: as above
Procedure: as §1

HCC1599 [3] = assay: as above
Procedure: as §1

BT-549 = assay: as above
Procedure: as §1

MDA-MB-453 [4] = assay: as above
Procedure: as §1

MFM-223 [5] = assay: as above
Procedure: as §1

CAL-120 = assay: as above
Procedure: as §1

HDQ-P1 [6] = assay: as above
Procedure: as §1

HCC1143 [7] = assay: as above
Procedure: as §1

CAL-51 = assay: as above
Procedure: as §1

DU-4475 = assay: as above
Procedure: as §1

MDA-MB-436 [8] = assay: as above
Procedure: as §1

CAL-148 [9] = assay: as above
Procedure: as §1

HCC1937 = assay: as above
Procedure: as §1

CAL-85-1 [10] = assay: drug sensitivity score (DSS), CellTox Green (DSS (AUC-based score)); higher = stronger drug effect (viability inhibition or cytotoxicity); extreme values may be limits of the assay
Procedure, shortened: (§2)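 In 384-well plates, compound was laid out at 5 concentrations in 10-fold steps over a 10,000-fold range specific to each compound, and breast cancer cell lines were seeded on top in 20 µl suspension for a 72 h incubation. CellTox Green fluorescence and then CellTiter-Glo luminescence were read, and each plate was normalised to 0.1 % DMSO and a positive kill control. The drug sensitivity score was calculated from the area under the fitted dose-response curve.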

Hs578T [11] = assay: as above
Procedure, shortened: as §2

HCC1599 [12] = assay: as above
Procedure, shortened: as §2

MDA-MB-231 = assay: as above
Procedure, shortened: as §2

MDA-MB-453 [13] = assay: as above
Procedure, shortened: as §2

MFM-223 [14] = assay: as above
Procedure, shortened: as §2

BT-474 = assay: as above
Procedure, shortened: as §2

HDQ-P1 [15] = assay: as above
Procedure, shortened: as §2

HCC1143 [16] = assay: as above
Procedure, shortened: as §2

MCF-10A = assay: as above
Procedure, shortened: as §2

MDA-MB-436 [17] = assay: as above
Procedure, shortened: as §2

CAL-148 [18] = assay: as above
Procedure, shortened: as §2

Compound	drug sensitivity score (CAL-85-1 [1])	drug sensitivity score (Hs578T [2])	drug sensitivity score (HCC1599 [3])	drug sensitivity score (BT-549)	drug sensitivity score (MDA-MB-453 [4])	drug sensitivity score (MFM-223 [5])	drug sensitivity score (CAL-120)	drug sensitivity score (HDQ-P1 [6])	drug sensitivity score (HCC1143 [7])	drug sensitivity score (CAL-51)	drug sensitivity score (DU-4475)	drug sensitivity score (MDA-MB-436 [8])	drug sensitivity score (CAL-148 [9])	drug sensitivity score (HCC1937)	drug sensitivity score (CAL-85-1 [10])	drug sensitivity score (Hs578T [11])	drug sensitivity score (HCC1599 [12])	drug sensitivity score (MDA-MB-231)	drug sensitivity score (MDA-MB-453 [13])	drug sensitivity score (MFM-223 [14])	drug sensitivity score (BT-474)	drug sensitivity score (HDQ-P1 [15])	drug sensitivity score (HCC1143 [16])	drug sensitivity score (MCF-10A)	drug sensitivity score (MDA-MB-436 [17])	drug sensitivity score (CAL-148 [18])
Cc1ccc(C(=O)Nc2ccc(CN3CCN(C)CC3)c(C(F)(F)F)c2)cc1C#Cc1cnc2cccnn12 [Ponatinib]	0	0.512	2.44	0.903	5.67	14.6	7.25	4.79	0	3.79	0	0	0.922	0												
N#CCNC(=O)c1ccc(-c2ccnc(Nc3ccc(N4CCOCC4)cc3)n2)cc1 [Momelotinib]															4.03	0	0	7.53	0	0	0	0	0	0	0	0
CS(=O)(=O)c1ccc(C2=C(c3ccccc3)C(=O)OC2)cc1 [Rofecoxib]															0	0	0	0	0	0	1.58	0	0	0	0	0
COc1cc2ncnc(Nc3ccc(F)c(Cl)c3)c2cc1NC(=O)/C=C/CN1CCCCC1 [Dacomitinib]															4.64	0	0	0	0	0	6.2	0	0	0	2.58	0
CCCCCCCCCCCCCCCCCCOP(=O)([O-])OC1CC[N+](C)(C)CC1 [Perifosine]															0	0	0	0	0	0	0	0	0	0	0	0
NCC(=O)CCC(=O)O [Aminolevulinic acid]	0	0	0	0	0	0	0	0	0	0	0	0	0	0												
O=C1CCC(N2C(=O)c3ccccc3C2=O)C(=O)N1 (stereo not given) [Thalidomide]	0	0	0	0	0	0	0	0	0	0	0	0	0	0	0	0	0	0	0	0	0		0	0	4.46	1.58
O=P1(NCCCl)OCCCN1CCCl (stereo not given) [Ifosfamide]	0	0	0	0	0	0	0	0	0	0	0	0	0	0	0	0	0	1.11	0	0	0	0	0	0		0
CCN(CCCOc1ccc2c(Nc3cc(CC(=O)Nc4cccc(F)c4)[nH]n3)ncnc2c1)CCOP(=O)(O)O [Barasertib]	4.42	7.48	0	5.75	11.8	0	8.21	0	0	8.86	4.75	0	20.5	9.75												
Cn1c(CCCC(=O)O)nc2cc(N(CCCl)CCCl)ccc21 [Bendamustine]	0	0	0	0	0	0	0	0	0	0	0	0	0	0	0		0	4.63	0	0	0	0	0	0	0	0
